# Columns and labels:
# [1] = system: adalimumab producing cell line 2; test: Extracellular MGO measurement in cell culture supernatant, cell line 2; type: cell-based; conditions: Example 4; for MGO concentration level: 0.15 g/l 2DDG
# Description: About 20 ml of cell free supernatant were collected in some cases for measurement of extracellular MGO in the supernatant. For this, a 3,000 RPM 30 min centrifugation was performed to remove the cells.
# Remove protein: After quick thawing covered with aluminum, cell culture samples (10 mL) were filtrated by a 3 kDa or 10 kDa membrane filter (Millipore, UFC900369) until the solution left inside the filter was around 1 mL, the flow through that was used for MGO analysis.
# Derivative MGO: 750 uL of flow through, 75 uL of 1 M NaH2PO4 buffer (pH 8), 50 mM 1,2 diaminobenzene (Aldrich P/N: P23938), and 600 uL of MilliQ water were mixed well and incubated at 60° C. for 3 hours. After cooling down and centrifuging at 10000 rpm for 3 minutes, the sample solution was ready to be injected.
# External Standards to Quantitate MGO: external standards were used to quantitate MGO in cell culture. Based on the following table, the standard solutions were prepared. The standard solutions were incubated at 60° C. for 3 hours. After cooling down, the standard solutions were analyzed to get an external standard curve. The concentration of MGO in culture was calculated based on the external standard curve. (MGO: CMP Biomedicals, P/N: 155558; GO: Fisher Scientifics, P/N: S25698). 10 mM and 1 mM MGO were diluted from the MGO and 1000 uM and 10 uM GO were diluted from the GO. The diluent was water.
# HPLC Method: A reverse phase HPLC method was used for MGO analysis. The parameters are listed in the method information table and gradient table below.
# The measured concentration based on external quantitation multiplied by two is the final MGO concentration.
# The objective of this experiment was to further evaluate the control of MGO synthesis/MGO protein modification through reduced glucose consumption in a different cell line, Cell line 2. There were two parts to this experiment. In one part, different levels of 2DDG were supplemented (0.05 g/l, 0.15 g/l) similar to the experimental design in Example 2. Prior to this experiment, a study was performed in shake flask culture to evaluate the dose effect of 2DDG on this cell line (data not shown). In the other part, different glucose profiles were maintained in the culture through the feedback control of glucose feed amounts. […] As described in Example 3, extracellular MGO quantification was performed for day 7, 8 and 9 for the samples below and percentage of acidic species were quantified using WCX-10 analysis post protein A of cell culture harvests.
# The cells were grown to maximum viable cell densities (VCD) in the range of 10-12×10^6 cells/ml for the different conditions tested. […] Samples were then subsequently analyzed using Lys-C peptide mapping for quantification of MGO modification post protein A purification. […]
# [2] = system: adalimumab producing cell line 1; test: Glucose consumption of the culture, cell line 1; type: cell-based
# Description: For the bioreactor (3 L Applikon) experiments (Examples 1, 2 and 3), 3 L, bioreactors (1.5 L working volume) were initiated at 35° C. (cell line 1) and 36° C. (cell line 2), 30% DO, 200 rpm, pH of 7.1. In some of the conditions, pH was ramped down to 6.8 in three days and kept at pH 6.8 thereafter. The inclusion of pH ramp for a particular condition is indicated by the final pH in the experimental design. If the final pH is 7.1, then it indicates no pH ramp was performed, whereas if the final pH is 6.8, a pH ramp was performed on day 3 from pH 7.1 to pH 6.8. In some of the conditions, a temperature shift was performed. When temperature shift was performed, the temperature was lowered to 33° C. Again, the conditions where such a temperature shift was performed can be identified from the final temperature in the experimental design. Cultures were run in extended batch mode with the addition of a desired amount of 40% glucose stock solution was fed based on glucose measurements.
# To assess if this reduction in MGO modification in the test conditions also corresponded to lower glucose consumption, the specific glucose consumption rate was calculated across the two phases of culture: average over day 0-day 5 and average over day 5-10 (period post temperature shift) (FIG. 4b). The specific glucose consumption rate in the conditions with 2DDG supplementation was lower in both phases. […] In the period post the temperature shift, up to 50% reduction in specific glucose consumption rate relative to that in the control was observed. Thus, a clear correlation has been observed between reduced glucose consumption and the extent of MGO modification of the peptides.
# To further assess the applicability of this strategy, the cumulative glucose consumption levels were also evaluated for these conditions in this study (FIG. 6b). This was calculated by using daily glucose concentration measurements via the offline analyzer and by accounting for glucose feeds when added. […]
compound,measurement,setting,value
"O=CC[C@@H](O)[C@H](O)[C@H](O)CO [Test 2DDG, 2-Deoxy-D-Glucose]",MGO concentration profile,"[1]; 0.05 g/l 2DDG, versus control",No significant difference
same,MGO concentration level,"[1]; day 7, control 28 μM",14 µM
same,MGO concentration level,"[1]; day 8, control 64 μM",16 µM
same,MGO concentration level,"[1]; day not printed (third value, after day 7 and day 8), control 157 μM (day 9)",20 µM
same,specific glucose consumption rate,"[2]; Example 2, 2DDG 0.25 g/l, day 0-day 5 and day 5-10, versus control",lower
same,glucose consumption,"[2]; Example 3, 2DDG supplementation 0.25 g/l",significant reduction
